The results in this text go back to article PMC10541198, “Specific quinone reductase 2 inhibitors reduce metabolic burden and reverse Alzheimer’s disease phenotype in mice” (The Journal of Clinical Investigation, 2023).

The structures appear in SMILES notation. Values joined by “and” are separate entries in the source; they are usually repeats but may differ in a detail not shown here. Equal values may be shown once.

The subject of one test is HCT116 cells. The experiment in a line: H2DCFDA detection of cellular ROS. The settings on record: 20 μM, 3 hour, WT HCT116. The test is classed as cell-based, human. As for the experimental part:
To establish direct target engagement and cell membrane permeability, a cellular thermal shift assay (CETSA) was carried out, using leading QR2is YB’s-537, 800, and 808. Following a 1 hour preincubation with 5 μM of the QR2is or vehicle, thermal aggregation curves (Taggs) of QR2 expressed in HEK293T were measured in increasing temperatures. All QR2is increased QR2 thermal stability compared with vehicle (Supplemental Figure 2A). Based on the Tagg curves we selected 73°C for isothermal dose-response fingerprint (IDTRF) experiments (Supplemental Figure 2B). The ITDRF allowed the relative quantification of the binding of each of the QR2is to QR2, measured as the EC50 (Figure 3A). […] We evaluated the safety of the QR2is using cell toxicity and viability assays. […] Cell viability was assessed by XTT assay in HEK239T cells, using a dose response, with 3- or 24-hour incubations of the leading QR2is. […] We then assessed WT HCT116 cells by immunoblot (Supplemental Figure 2, C and D), after being treated with YB-800 (2 μM) for 4 consecutive days. […]
The cells wer e har ves t ed a nd resuspended in 1% cl ear m e di um ( DM EM – with no phenol red, suppl em ent ed with 1% FBS, 1% L-Glutamine and 1% Penicillin-Streptomycin). […] The plate wa s then incubated in the dark at 37°C f or 3 h, before reading in a Tecan M200 Pro florescence microplate reader, using wavelengths Ex/Em = 485 nm / 535 nm . […]

Another test relates to eIF2α. The experiment in a line: Immunoblot of total and phosphorylated eIF2α 3 hours after CA1 microinjection. The test is classed as in vivo, mouse. On the procedure: In order to evaluate the efficacy of some of the leading QR2is in vivo, we carried out double-blind experiments using 2 different modalities (Supplemental Methods), measuring memory that is dependent on different brain areas. First, cortical memory was tested using incidental novel taste learning (see Methods), in which an unfamiliar, but palatable and safe, taste is given for the first time, and the memory for this newly learned taste is then assessed 2 days later. This is done by measuring the volume of the taste consumed upon subsequent exposure to it ([32]) (Figure 4A). […] Next, hippocampal-dependent learning was evaluated using delay fear conditioning (DFC; see Methods) ([33]). Mice were cannulated to the CA1 region of the hippocampus and were microinjected with YB-537 (1 μL of 5 μM, Figure 4, D and H) or vehicle. […] In order to evaluate any possible effect of acute QR2i microinjection on metabolic stress in the mouse brain, ISR activation was measured by quantifying total and phosphorylated eukaryotic initiation factor 2 α (eIF2α) levels (Supplemental Figure 3A) and lipid peroxidation product, 4-hydroxynonenal (4-HNE; Supplemental Figure 3B), by immunoblot 3 hours after the injection. […]
For orientation: Immunoblotting shows a protein as a band on a membrane.

With `Cc1ccc(-c2cn3cccc(C)c3n2)cc1S(=O)(=O)N1CCC(C)CC1` [YB-800], the “ROS levels (replicates)” value in the test with HCT116 cells was 0.005141 and -0.1557 and -0.2104 and -0.08593 and -0.04485.

Take `Cc1ccc(-c2cn3cccc(C)c3n2)cc1S(=O)(=O)N1CCNCC1` [YB-537]: the eIF2α phosphorylation levels entry with eIF2α (3 hours after microinjection in the mouse hippocampus) is on record as “insignificant reduction”. In addition, in the test with eIF2α (3 hours after microinjection, Sup. Fig. 3A), the “eIF2α phosphorylation, immunoblot (individual mice)” value was 1.423 and 1.158 and 1.034 and 0.527 and 1.086 and 1.215 and 0.836.
